Where two headings read alike, the source gives them in different places.
Experiments:
Format in all cases: cell-based
HRV16 = HRV16 HELA EC50 (cytopathic effect in H1-HeLa cells)
Procedure: H1-HeLa cells, cultured in complete DMEM medium containing 10% heat-inactivated FBS and 1% Penicillin/Streptomycin, were seeded in 96 well plates at 3000 cells/well one day prior to compound dosing and infection. The antiviral activity of each compound was measured in triplicate. Compounds were added directly to the cell cultures in serial 3-fold dilutions using the HP300 digital dispenser (Hewlett Packard, Palo Alto, CA) immediately prior to infection. The plates were transferred to BSL-2 containment and the appropriate dilution of virus stock, previously determined by titration and prepared in cell culture media, was added to test plates containing cells and serially diluted compounds. Each plate included 6 wells of infected untreated cells and 6 wells of uninfected cells that served as 0% and 100% virus inhibition control, respectively. Following the infection, test plates were incubated for 96 h in a tissue culture incubator set to 33° C./5% CO2. Following incubation, the H1-HeLa cells were removed from incubation and allowed to equilibrate to 25° C. Cell viability was determined by removing 100 μL of culture medium and adding 100 μL of Cell-Titer Glo viability reagent. The mixtures were incubated on a shaker for 10 minutes at 25° C., and the luminescence signal was quantified on an Envision luminescence plate reader.

RSV strain A2 = test: RSV HEp-2 EC50 (infectious cytopathic cell protection assay); conditions: HEp-2 cells, RSV A2, 4 days, read-out: RSV HEp-2 EC50
Procedure: Antiviral activity against RSV is determined using an infectious cytopathic cell protection assay in HEp-2 cells. In this assay, compounds inhibiting viral infection and/or replication produce a cytoprotective effect against the virus-induced cell killing that can be quantified using a cell viability reagent. The techniques used here are novel adaptations of methods described in published literature (Chapman et al., Antimicrob Agents Chemother. 2007, 51(9):3346-53.)
HEp-2 cells are obtained from ATCC (Manassas, VI) and maintained in MEM media supplemented with 10% fetal bovine serum and penicillin/streptomycin. Cells are passaged twice a week and kept at subconfluent stage. Commercial stock of RSV strain A2 (Advanced Biotechnologies, Columbia, MD) is titered before compound testing to determine the appropriate dilution of the virus stock that generates desirable cytopathic effect in HEp-2 cells.
For antiviral tests, HEp-2 cells are grown in large cell culture flasks to near confluency but not fully so. The compounds to be tested are prediluted in DMSO in 384-well compound dilution plates, either in an 8 or 40 sample per plate standardized dose response format. 3-fold serial dilution increments of each test compound are prepared in the plates and test samples are transferred via acoustic transfer apparatus (Echo, Labcyte) at 100 nL per well into cell culture assay 384-well plates. Each compound dilution is transferred in single or quadruplicate samples into dry assay plates, which are stored until assay is ready to go. The positive and negative controls are laid out in opposite on ends of the plate in vertical blocks (1 column).
Subsequently, an infectious mixture is prepared using an appropriate dilution of virus stock previously determined by titration with cells at a density of 50,000/ml and 20 µL/well is added to test plates w/compounds via automation (uFlow, Biotek). Each plate includes negative and positive controls (16 replicates each) to create 0% and 100% virus inhibition standards, respectively. Following the infection with RSV, testing plates are incubated for 4 days in a 37° C. cell culture incubator. After the incubation, a cell viability reagent, Cell TiterGlo (Promega, Madison, WI) is added to the assay plates, which are incubated briefly, and a luminescent readout is measured (Envision, Perkin Elmer) in all the assay plates. The RSV-induced cytopathic effect, percentage inhibition, is determined from the levels of remaining cell viability. […] Various potent anti-RSV tool compounds are used as positive controls for antiviral activity.

DENV2 replicon = test: DENV-2 Huh-7 Rep EC50 (replicon luminescence); conditions: read-out: DENV-2 Huh-7 Rep EC50
Procedure: In 384 well plates (Greiner, Cat #781091), compounds were acoustically transferred at 200 nl per well in a 8 compound (4 replicates) or 40 compound dose response format (3 replicates). For all plates tested, Balapiravir, GS-5734 and NITD008 were included as positive inhibition controls alongside 0% inhibition, DMSO-only negative control wells. Following compound addition, Huh-7 cells containing the DENV2 replicon construct were harvested following standard cell culture procedures and were adjusted to a concentration of 1.25E5 cells/mL in cell culture media composed of cDMEM without genticin. 40 μL of the cell stock was then added to each well for a final cell density of 5,000 cells/well. Cell and compound mixtures were incubated at 37° C./5% CO2 for 48 hours. Prior to harvesting cells, EnduRen Live Cell Substrate (Promega, Cat #E6481) was prepared by suspending 3.4 mg into 100 uL of DMSO to generate a 60 mM stock solution. The stock solution was then diluted 1:200 in pre-warmed cDMEM and 10 uL of this diluted solution was added to each well of the 384 well plates. Plates were then centrifuged at 500 rpm briefly and were placed on a plate shaker for 2 min. Following mixing, plates were incubated at […] for 1.5 hours prior to measuring luminescence on an Envision luminometer.

RSV A2 = test: RSV NHBE EC50 (RSV A2 antiviral assay in normal human bronchial epithelial cells); conditions: NHBE cells, RSV A2, 4 days, read-out: RSV NHBE EC50
Procedure: Normal human bronchial epithelial (NHBE) cells were purchased from Lonza (Walkersville, MD, Cat #CC-2540) and cultured in Bronchial Epithelial Growth Media (BEGM) (Lonza, Walkersville, MD, Cat #CC-3170). The cells were passaged 1-2 times per week to maintain <80% confluency. The NHBE cells were discarded after 6 passages in culture.
To conduct the RSV A2 antiviral assay, NHBE cells were plated in 96-well plates at a density of 7,500 cells per well in BEGM and allowed to attach overnight at 37° C. Following attachment, 100 μL of cell culture media was removed and 3-fold serially diluted compound was added using a Hewlett-Packard D300 Digital Dispenser. The final concentration of DMSO was normalized to 0.05%. Following compound addition, the NHBE cells were infected by the addition of 100 μL of RSV A2 at a titer of 1×10^4.5 tissue culture infectious doses/mL in BEGM and then incubated at 37° C. for 4 days. […] The mixtures were incubated for 10 minutes at 25° C., and the luminescence signal was quantified on an Envision luminescence plate reader.

[1] = 96 h, H1-HeLa cells, 33° C., read-out: HRV16 HELA EC50
[2] = human respiratory syncytial virus, HEp-2, 96 h
[3] = Dengue virus, DENV2, Huh-7, 48 h, Huh-7 replicon cells, 48 hours
[4] = human respiratory syncytial virus, NHBE, 96 h
[5] = H1-HeLa cells, 96 h, 33° C.; read-out: HRV16 HELA EC50
[6] = human respiratory syncytial virus, 96 h

Row | Structure (SMILES) | EC50 (RSV strain A2; [2]) | EC50 (DENV2 replicon; [3]) | EC50 (RSV A2; [4]) | EC50 (RSV A2) | EC50 (RSV strain A2) | further results
1 | C[C@H](NP(=O)(OC[C@@]1(C#N)O[C@@H](c2ccc3c(N)ncnn23)[C@H](O)[C@@H]1O)Oc1ccccc1)C(=O)O[C@@H]1CCOC1 (mixture of isomers) [Example 68, (R)-Tetrahydrofuran-3-yl ((((2R,3S,4R,5S)-5-(4-aminopyrrolo[2,1-f][1,2,4]triazin-7-yl)-2-cyano-3,4-dihydroxytetrahydrofuran-2-yl)methoxy)(phenoxy)phosphoryl)-L-alaninate] | 0.247 µM | – | – | – | – | EC50 (HRV16; [1]): 4.72 µM
2 | C[C@H](NP(=O)(OC[C@@]1(C#N)O[C@@H](c2ccc3c(N)ncnn23)[C@H](O)[C@@H]1O)Oc1ccccc1)C(=O)OCC12CCN(CC1)CC2 (stereo partly drawn) [Example 213, quinuclidin-4-ylmethyl ((((2R,3S,4R,5S)-5-(4-aminopyrrolo[2,1-f][1,2,4]triazin-7-yl)-2-cyano-3,4-dihydroxytetrahydrofuran-2-yl)methoxy)(phenoxy)phosphoryl)-L-alaninate] | 3.84 µM | > 100 µM | > 5 µM | – | – | –
3 | C[C@H](NP(=O)(OC[C@@]1(C#N)O[C@@H](c2ccc3c(N)ncnn23)[C@H](O)[C@@H]1O)Oc1ccccc1)C(=O)O[C@@H]1CCN(C)C1 (mixture of isomers) [Example 61, (R)-1-methylpyrrolidin-3-yl ((((2R,3S,4R,5S)-5-(4-aminopyrrolo[2,1-f][1,2,4]triazin-7-yl)-2-cyano-3,4-dihydroxytetrahydrofuran-2-yl)methoxy)(phenoxy)phosphoryl)-L-alaninate] | 2.29 µM | – | ≥ 5 µM | – | – | EC50 (HRV16; [1]): 23.2 µM
4 | CCC(CC)COC(=O)[C@H](C)NP(=O)(N[C@@H](C)C(=O)OC1CCCCC1)OC[C@@]1(C#N)O[C@@H](c2ccc3c(N)ncnn23)[C@H](O)[C@@H]1O (single isomer, unassigned) [Example 228] | – | – | – | 2.04 µM | – | EC50 (HRV16; [5]): 4.71 µM
5 | C[C@H](NP(=O)(OC[C@@]1(C#N)O[C@@H](c2ccc3c(N)ncnn23)[C@H](O)[C@@H]1O)Oc1ccccc1)C(=O)OC1CCC(F)(F)CC1 (single isomer, unassigned) [Example 175] | – | – | – | 0.539 µM | 0.801 µM | EC50 (DENV2 replicon; Huh-7 replicon cells, 48 hours): > 100 µM
6 | CCC(CC)COC(=O)[C@H](C)NP(=O)(N[C@@H](C)C(=O)OC1CCCCC1)OC[C@@]1(C#N)O[C@@H](c2ccc3c(N)ncnn23)[C@H](O)[C@@H]1O (mixture of isomers) [Example 30, cyclohexyl ((((2R,3S,4R,5S)-5-(4-aminopyrrolo[2,1-f][1,2,4]triazin-7-yl)-2-cyano-3,4-dihydroxytetrahydrofuran-2-yl)methoxy)(((S)-1-(2-ethylbutoxy)-1-oxopropan-2-yl)amino)phosphoryl)-L-alaninate] | – | – | – | – | – | EC50 (DENV2 replicon; Dengue virus, DENV2, Huh-7, 48 h): 60.7 µM; EC50 (RSV A2; [6]): 0.044 µM; EC50 (RSV strain A2; [6]): 0.844 µM
7 | C[C@H](NP(=O)(OC[C@@]1(C#N)O[C@@H](c2ccc3c(N)ncnn23)[C@H](O)[C@@H]1O)Oc1ccccc1)C(=O)OCC1CCCCC1 (stereo partly drawn) [Example 246, cyclohexylmethyl ((((2R,3S,4R,5S)-5-(4-aminopyrrolo[2,1-f][1,2,4]triazin-7-yl)-2-cyano-3,4-dihydroxytetrahydrofuran-2-yl)methoxy)(phenoxy)phosphoryl)-L-alaninate] | 0.035 µM | 5.11 µM | 0.041 µM | – | – | –
8 | CC(C)OC(=O)[C@H](C)NP(=O)(OC[C@@]1(C#N)O[C@@H](c2ccc3c(N)ncnn23)[C@H](O)[C@@H]1O)Oc1ccc(C(=O)N(C)C)cc1 (stereo partly drawn) [Example 43, Isopropyl ((((2R,3S,4R,5S)-5-(4-aminopyrrolo[2,1-f][1,2,4]triazin-7-yl)-2-cyano-3,4-dihydroxytetrahydrofuran-2-yl)methoxy)(4-(dimethylcarbamoyl)phenoxy)phosphoryl)-L-alaninate] | 55.3 µM | > 100 µM | ≥ 5 µM | – | – | –
9 | C[C@H](NP(=O)(OC[C@@]1(C#N)O[C@@H](c2ccc3c(N)ncnn23)[C@H](O)[C@@H]1O)Oc1ccccc1)C(=O)OC1CCCCCCC1 (single isomer, unassigned) [Example 172] | – | 31.4 µM | > 0.516 µM | – | 1.45 µM | –
10 | C[C@@H](NP(=O)(OC[C@@]1(C#N)O[C@@H](c2ccc3c(N)ncnn23)[C@H](O)[C@@H]1O)Oc1ccccc1)C(=O)O[C@H]1CC[C@H](C(F)(F)F)CC1 (single isomer, unassigned) [Example 196] | – | – | – | 1.32 µM | 4.13 µM | EC50 (HRV16; [5]): 7.54 µM
11 | COC(=O)[C@H](C)NP(=O)(OC[C@@]1(C#N)O[C@@H](c2ccc3c(N)ncnn23)[C@H](O)[C@@H]1O)Oc1ccc(C[C@H](N)C(=O)OC)cc1 (single isomer, unassigned) [Example 62] | – | – | – | > 5 µM | 4.53 µM | EC50 (HRV16; [5]): 8.57 µM
12 | COC(=O)[C@H](C)NP(=O)(OC[C@@]1(C#N)O[C@@H](c2ccc3c(N)ncnn23)[C@H](O)[C@@H]1O)Oc1cccnc1 (stereo partly drawn) [Example 249, methyl ((((2R,3S,4R,5S)-5-(4-aminopyrrolo[2,1-f][1,2,4]triazin-7-yl)-2-cyano-3,4-dihydroxytetrahydrofuran-2-yl)methoxy)(pyridin-3-yloxy)phosphoryl)-L-alaninate] | – | > 50 µM | ≥ 5 µM | – | – | –
13 | CC1CCC(OC(=O)C(C)NP(=O)(OCC2(C#N)OC(c3ccc4c(N)ncnn34)C(O)C2O)Oc2ccccc2)CC1 (centres unmarked) [Example 144] | – | – | – | 0.065 µM | 0.614 µM | –

From patent US20230295201A1 (Gilead Sciences, Inc., priority 2020, published 2023)
